Measurements as given in ChEMBL document CHEMBL1201862, “PubChem BioAssay data set” (2004).
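Protocol summary: plate cells (96-well), add compound at 5 concentrations, incubate 48 h, interpolate endpoints linearly. At the GI50, growth is halved.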 Activity calls are given as the source filed them. Rule as the data show it: active = GI50 up to about 1.1 µM and inactive = higher. Where a SMILES comes first, the peptide text is derived from it. Bridges are numbered along the chain shown (N, C = ends). Peptide text beside a SMILES is read from it. [ ]: non-standard residue; d: D form. The star is where a group is joined. * marks the point of attachment. ξ: configuration not given here. X28 = O=C(/C=C/C=C/C=C/C=C/C=C/C(=O)*)NC1=C(O)CCC1=O; NMeA = CN[C@@H](C)C(=O)O; ξF = NC(Cc1ccccc1)C(=O)O; Cbz = O=C(OCc1ccccc1)*; ξA = CC(N)C(=O)O; CH2Cl = ClC*

Legend:
Assay in all cases: DTP human tumour cell line panel, 48 h
LOX IMVI = tested on: LOX IMVI
SNB-75 = tested on: SNB-75
T47D = tested on: T47D
MDA-MB-231 = tested on: MDA-MB-231
SW-620 = tested on: SW-620
PC-3 = tested on: PC-3
SNB-19 = tested on: SNB-19
SF-295 = tested on: SF-295
SK-MEL-28 = tested on: SK-MEL-28
OVCAR-4 = tested on: OVCAR-4
UO-31 = tested on: UO-31
HCC 2998 = tested on: HCC 2998
SF-539 = tested on: SF-539
SK-OV-3 = tested on: SK-OV-3
ACHN = tested on: ACHN
OVCAR-3 = tested on: OVCAR-3
BT-549 = tested on: BT-549
NCI/ADR-RES = tested on: NCI/ADR-RES
MCF7 = tested on: MCF7
SF-268 = tested on: SF-268

SMILES | GI50 (LOX IMVI) | GI50 (SNB-75) | GI50 (T47D) | GI50 (MDA-MB-231) | GI50 (SW-620) | GI50 (PC-3) | GI50 (SNB-19) | GI50 (SF-295) | GI50 (SK-MEL-28) | GI50 (OVCAR-4) | GI50 (UO-31) | GI50 (HCC 2998) | GI50 (SF-539) | GI50 (SK-OV-3) | GI50 (ACHN) | GI50 (OVCAR-3) | GI50 (BT-549) | GI50 (NCI/ADR-RES) | GI50 (MCF7) | GI50 (SF-268)
CCCCCCCCCCCCCCCCCCNC(=O)OCC(CNS(=O)(=O)CCC[n+]1cccc2ccccc21)COC (stereo not given) | 2.01 µM (inactive) | 2.47 µM (inactive) | 3.88 µM (inactive) | 1.82 µM (inactive) | 2.16 µM (inactive) | 1.76 µM (inactive) | 1.4 µM (inactive) | 2.6 µM (inactive) | 4.74 µM (inactive) | 1.31 µM (inactive) | 27.9 µM (inactive) | 1.34 µM (inactive) | 2.01 µM (inactive) | 2.49 µM (inactive) | 6.75 µM (inactive) | 3.99 µM (inactive) | 2.18 µM (inactive) | 18.5 µM (inactive) | 1.55 µM (inactive) | 2.34 µM (inactive)
CCOc1ccc(NC(=O)C(=O)C(/C(=N/N)C(=O)OC)c2nc3ccc([N+](=O)[O-])cc3nc2O)cc1 (stereo not given) | > 100 µM (inactive) | > 100 µM (inactive) | > 100 µM (inactive) | > 100 µM (inactive) | > 100 µM (inactive) | > 100 µM (inactive) | > 100 µM (inactive) | > 100 µM (inactive) | > 100 µM (inactive) | > 100 µM (inactive) | > 100 µM (inactive) | > 100 µM (inactive) | > 100 µM (inactive) | > 100 µM (inactive) | > 100 µM (inactive) | > 100 µM (inactive) | > 100 µM (inactive) | > 100 µM (inactive) | > 100 µM (inactive) | > 100 µM (inactive)
CNn1c(-c2ccccc2)n[nH]c1=O | > 100 µM (inactive) | > 100 µM (inactive) | > 100 µM (inactive) | > 100 µM (inactive) | > 100 µM (inactive) | > 100 µM (inactive) | > 100 µM (inactive) | > 100 µM (inactive) | > 100 µM (inactive) | > 100 µM (inactive) | > 100 µM (inactive) | > 100 µM (inactive) | > 100 µM (inactive) | > 100 µM (inactive) | > 100 µM (inactive) | > 100 µM (inactive) | > 100 µM (inactive) | > 100 µM (inactive) | > 100 µM (inactive) | > 100 µM (inactive)
N#Cc1ccc(NC(=O)C(CC(=O)OCc2ccccc2)NC(=O)OCc2ccccc2)cc1 (stereo not given) | > 10 µM (inactive) | > 10 µM (inactive) | > 10 µM (inactive) | > 10 µM (inactive) | > 10 µM (inactive) | > 10 µM (inactive) | > 10 µM (inactive) | > 10 µM (inactive) | > 10 µM (inactive) | > 10 µM (inactive) | > 10 µM (inactive) | 93.3 µM (inactive) | > 10 µM (inactive) | > 10 µM (inactive) | > 10 µM (inactive) | > 10 µM (inactive) | > 10 µM (inactive) | > 10 µM (inactive) | > 10 µM (inactive) | > 10 µM (inactive)
C=CCN1C(=O)/C(=C/c2ccco2)N=C1SC/C=C/C | 26.5 µM (inactive) | 33.8 µM (inactive) | 43.6 µM (inactive) | 67.9 µM (inactive) | 43.9 µM (inactive) | 39 µM (inactive) | 71.3 µM (inactive) | 40.4 µM (inactive) | 46.1 µM (inactive) | 60.5 µM (inactive) | 73.5 µM (inactive) | 93.8 µM (inactive) | > 100 µM (inactive) | > 100 µM (inactive) | 35.4 µM (inactive) | 35.6 µM (inactive) | 40.2 µM (inactive) | 37.1 µM (inactive) | 18.6 µM (inactive) | 49.2 µM (inactive)
CCOc1nc2sc3c(c2c(=O)n1CCSSCCn1c(OCC)nc2sc4c(c2c1=O)CCCC4)CCCC3 | > 100 µM (inactive) | > 100 µM (inactive) | > 100 µM (inactive) | > 100 µM (inactive) | > 100 µM (inactive) | > 100 µM (inactive) | > 100 µM (inactive) | > 100 µM (inactive) | > 100 µM (inactive) | > 100 µM (inactive) | > 100 µM (inactive) | > 100 µM (inactive) | > 100 µM (inactive) | > 100 µM (inactive) | > 100 µM (inactive) | > 100 µM (inactive) | > 100 µM (inactive) | > 100 µM (inactive) | > 100 µM (inactive) | > 100 µM (inactive)
COC(=O)CNC(=O)CCC(C)[C@H]1CCC2C3C(C[C@H](OC(C)=O)[C@@]21C)[C@@]1(C)CCC2(C[C@H]1C[C@H]3OC(C)=O)OOC1(CC[C@]3(C)C4C[C@H](OC(C)=O)[C@@]5(C)C(CC[C@@H]5C(C)CCC(=O)NCC(=O)OC)C4[C@H](OC(C)=O)C[C@@H]3C1)OO2 (stereo not given in full) | 0.962 µM (active) | 1.64 µM (inactive) | 2.6 µM (inactive) | 1.31 µM (inactive) | 1.71 µM (inactive) | 1.64 µM (inactive) | 37.2 µM (inactive) | 5.65 µM (inactive) | 1.61 µM (inactive) | 4.9 µM (inactive) | 0.828 µM (active) | 0.944 µM (active) | 0.959 µM (active) | 5.37 µM (inactive) | 0.838 µM (active) | 3.03 µM (inactive) | > 50 µM (inactive) | 8.75 µM (inactive) | 2.71 µM (inactive) | 2.19 µM (inactive)
CC(C)CC(NC(=O)OCc1ccccc1)C(=O)NC(Cc1ccccc1)C(=O)CCl (stereo not drawn) (Cbz-Leu-Phe-CH2Cl; configuration not given here) | 0.719 µM (active) | 4.78 µM (inactive) | 2.21 µM (inactive) | 1.69 µM (inactive) | 1.57 µM (inactive) | 4.76 µM (inactive) | 23.6 µM (inactive) | 17.5 µM (inactive) | 1.85 µM (inactive) | 2.08 µM (inactive) | 6.46 µM (inactive) | 13.2 µM (inactive) | 3.32 µM (inactive) | 11.4 µM (inactive) | 4.25 µM (inactive) | 3.72 µM (inactive) | 2.47 µM (inactive) | 2.44 µM (inactive) | 2.55 µM (inactive) | 4.86 µM (inactive)
CC1NC(=O)[C@H](C)N(C)C(=O)[C@@H]2CCCN2C(=O)[C@@H](NC(=O)C(Cc2ccccc2)NC(=O)/C=C/C=C/C=C/C=C/C=C/C(=O)NC2=C(O)CCC2=O)COC(=O)[C@@H]2CCCN2C1=O (stereo not given in full) (X28-[ξF]SP[NMeA][ξA]P; ester 2-C) | > 100 µM (inactive) | 64.3 µM (inactive) | > 100 µM (inactive) | 22.7 µM (inactive) | > 100 µM (inactive) | > 100 µM (inactive) | > 100 µM (inactive) | > 100 µM (inactive) | > 100 µM (inactive) | > 100 µM (inactive) | 29.2 µM (inactive) | > 100 µM (inactive) | > 100 µM (inactive) | > 100 µM (inactive) | > 100 µM (inactive) | > 100 µM (inactive) | > 100 µM (inactive) | > 100 µM (inactive) | > 100 µM (inactive) | > 100 µM (inactive)
